This is an account of results in patent publication US10206937B2, “Boronic acid derivatives and therapeutic uses thereof” (Qpex Biopharma, Inc., priority 2014, dated 2019).

Assay [1] has as its target T1, NDM-1 (Klebsiella pneumoniae, UniProt C7C422). The assay can be described thus: biochemical.
Another assay has as its target OXA-48 (Klebsiella pneumoniae, UniProt Q6XEC0). Briefly: Inhibition of purified class D carbapenemase OXA-48 (Ki, carbapenem substrates). The assay is classed as biochemical.
In assay [2] the target is T2, purified class A, C and D enzymes (UniProt Q6XEC0).
T2 construct: rows headed: Ki (OXA-48, NCF); other: purified OXA-48; nitrocefin reporter substrate
The assay is classed as biochemical. The conditions noted are these: read-out: Ki (OXA-48, NCF); purified OXA-48; nitrocefin reporter substrate.

The target in assay [3] is T3, purified class A, C and D enzymes (UniProt P0AD64, L31Q/G234S/E235K, species not given).
T3 construct: Ki (SHV-12, NCF); other: purified SHV-12; nitrocefin reporter substrate
T3 sequence (P0AD64 1-286 L31Q/G234S/E235K): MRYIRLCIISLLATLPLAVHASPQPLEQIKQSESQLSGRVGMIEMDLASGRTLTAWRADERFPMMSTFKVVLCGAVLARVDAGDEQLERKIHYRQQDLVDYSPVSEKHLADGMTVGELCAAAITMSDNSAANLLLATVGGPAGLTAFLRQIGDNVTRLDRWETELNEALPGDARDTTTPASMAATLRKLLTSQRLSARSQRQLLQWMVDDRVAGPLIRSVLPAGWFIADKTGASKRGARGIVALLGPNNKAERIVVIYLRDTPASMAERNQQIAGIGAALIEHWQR
The assay is classed as biochemical. The note with it: read-out: Ki (SHV-12, NCF); purified SHV-12; nitrocefin reporter substrate.

Assay [4] has as its system strains of Enterobacteriaceae overexpressing various carbapenemases (class A and B). The assay can be described thus: organism not typed. The assay is classed as cell-based. An excerpt:
Several strains simultaneously expressing both class A and class B carbapenemases, which were constructed using conjugation, were also included in the panel.

Another assay addresses T4, VIM-1 (Pseudomonas aeruginosa, UniProt A0A0F7KYQ8).
T4 construct: made in house; host or cells: ECM6711 strain carrying pUCP24-VIM-1 plasmid; culture supernatant used unpurified
Briefly: biochemical. The note with it: cleavage of nitrocefin (200 uM) by VIM-1 supernatant.

In assay [5] the target is T5, purified class A, C and D enzymes (UniProt Q9F663).
T5 construct: rows headed: Ki (KPC-2, NCF); other: purified KPC-2; nitrocefin reporter substrate
It is filed as biochemical. The conditions noted are these: read-out: Ki (KPC-2, NCF); purified KPC-2; nitrocefin reporter substrate.

Assay [6] deals with T1, NDM-1. Briefly: Inhibition of purified class B carbapenemase NDM-1 (Ki, imipenem substrate). It is filed as biochemical. The conditions noted are these: NDM-1, substrate imipenem; read-out: Ki NDM-1, Imipenem.
In assay [7] the target is purified class A, C and D enzymes (Escherichia coli, UniProt Q9L5C7). The assay is classed as biochemical. The note with it: purified CTX-M-14; nitrocefin reporter substrate.
Chain of purified class A, C and D enzymes (Escherichia coli, UniProt Q9L5C7) (Q9L5C7 entry or part of it): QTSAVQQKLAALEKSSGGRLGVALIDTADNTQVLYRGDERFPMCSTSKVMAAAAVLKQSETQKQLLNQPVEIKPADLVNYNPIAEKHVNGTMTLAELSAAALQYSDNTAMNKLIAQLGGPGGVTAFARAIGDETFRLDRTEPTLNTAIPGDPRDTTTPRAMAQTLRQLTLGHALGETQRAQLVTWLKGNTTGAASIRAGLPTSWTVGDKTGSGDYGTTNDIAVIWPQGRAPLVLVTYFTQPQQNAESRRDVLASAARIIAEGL
Assay [8] addresses purified class A, C and D enzymes (Enterobacter cloacae, UniProt P05364). It is filed as biochemical. The note with it: purified P99/AmpC of ECL; nitrocefin reporter substrate.
Assay [9] relates to strains of Enterobacteriaceae producing various carbapenemases (class A, D and B; 169 strains). The assay can be described thus: Meropenem or tebipenem potentiation by Compounds 97 or 62 (MIC). The assay is classed as cell-based. The conditions noted are these: Compound 97 at a fixed concentration of 8 μg/ml. The protocol: The largest panel of clinical isolates expressing class A, D and B carbapenemases alone or in combination with other beta-lactamases (169 strains) was used to evaluate carbapenem potentiation activity of Compounds 97 and 62. MIC for meropenem and tebipenem of these strains were determined either alone or in the presence of Compounds 97 or 62, respectively, at a fixed concentration of 8 μg/ml in the growth media.

[10] abbreviates: cleavage of biapenem (100 uM) by NDM-1, read-out: Ki, Biapenem.
Where [11] appears, read: cleavage of imipenem (100 uM) by NDM-1, read-out: Ki, Imipenem.
The mark [12] stands for this setting: cleavage of meropenem (100 uM) by NDM-1, read-out: Ki, Meropenem.
Where [13] appears, read: purified OXA-48, substrate biapenem, read-out: Ki OXA-48, Biapenem.

pIC50, pKi: −log10 of the molar value. Where two headings read alike, the source gives them in different places. Some results are limits rather than exact numbers.

T1 sequence (C7C422 29-270, looked up, species assumed): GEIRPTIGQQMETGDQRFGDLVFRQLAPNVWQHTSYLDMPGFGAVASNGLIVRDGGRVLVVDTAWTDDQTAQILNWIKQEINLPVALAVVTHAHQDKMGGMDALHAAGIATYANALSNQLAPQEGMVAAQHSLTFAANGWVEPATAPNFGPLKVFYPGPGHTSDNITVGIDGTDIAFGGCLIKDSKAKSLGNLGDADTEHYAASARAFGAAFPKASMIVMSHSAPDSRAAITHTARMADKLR
Chain of purified class A, C and D enzymes (Enterobacter cloacae, UniProt P05364) (P05364 21-381): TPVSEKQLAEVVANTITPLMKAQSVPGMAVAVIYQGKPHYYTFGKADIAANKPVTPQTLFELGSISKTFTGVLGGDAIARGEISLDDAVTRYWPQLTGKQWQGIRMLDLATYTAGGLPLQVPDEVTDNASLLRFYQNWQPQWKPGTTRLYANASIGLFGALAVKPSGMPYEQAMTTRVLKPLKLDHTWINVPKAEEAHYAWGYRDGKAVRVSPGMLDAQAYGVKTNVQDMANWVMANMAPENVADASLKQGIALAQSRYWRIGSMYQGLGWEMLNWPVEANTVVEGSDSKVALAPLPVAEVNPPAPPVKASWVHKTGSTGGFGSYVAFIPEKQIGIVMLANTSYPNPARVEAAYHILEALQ
Chain of OXA-48 (Q6XEC0 23-265, looked up): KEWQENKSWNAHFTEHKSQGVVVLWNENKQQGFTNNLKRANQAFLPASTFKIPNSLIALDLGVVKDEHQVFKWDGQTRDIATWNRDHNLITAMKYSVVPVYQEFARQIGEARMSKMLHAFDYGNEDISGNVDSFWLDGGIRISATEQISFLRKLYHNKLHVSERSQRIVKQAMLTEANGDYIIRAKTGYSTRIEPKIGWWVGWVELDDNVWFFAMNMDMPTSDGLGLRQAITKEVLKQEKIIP

For `Nn1cnnc1S[C@H]1Cc2cccc(C(=O)O)c2OB1O` [Compound 14, (R)-3-(4-amino-4H-1,2,4-triazol-3-ylthio)-2-hydroxy-3,4-dihydro-2H-benzo[e][1,2]oxaborinine-8-carboxylic acid], the pKi (usually the Ki on a negative log10 scale, so that one unit is a factor of ten) is > 8.00 on NDM-1 [1] (setting [10]); > 8.00 at NDM-1 [1] (setting [11]); > 8.00 at NDM-1 [1] (setting [12]); 7.00 to 8.00 at OXA-48 (cleavage of biapenem by OXA-48, read-out: Ki, Biapenem); 7.00 to 8.00 at OXA-48 (cleavage of imipenem by OXA-48, read-out: Ki, Imipenem); < 7.00 at OXA-48 (cleavage of meropenem by OXA-48, read-out: Ki, Meropenem). Besides, the negative logarithm of the Ki (pKi) was < 7.00 at OXA-48 (cleavage of tebipenem by OXA-48, read-out: Ki, Tebipenem); > 7.00 in assay [2]; > 7.00 in [3]. Further, in assay [4], the “carbapenem MIC (imipenem, meropenem)” value is on record as “significantly reduced”. Also, on VIM-1, the pIC50 (as a rule, the IC50 on a negative log10 scale, so that one unit is a factor of ten) is > 6.00.
With `CS[C@H]1Cc2cccc(C(=O)O)c2OB1O` [Compound 16, (R)-2-hydroxy-3-(methylthio)-3,4-dihydro-2H-benzo[e][1,2]oxaborinine-8-carboxylic acid], the pKi at NDM-1 [1] (setting [11]) is > 8.00; on OXA-48 (setting [13]) it was > 8.00; in assay [2] it was > 7.00; in assay [5], > 7.00; in [3] it was 6.00 to 7.00. The pIC50 against VIM-1 was > 6.00.
In the case of `O=C(O)c1cccc2c1OB(O)[C@@H](OC1CNC1)C2` [Compound 18, (R)-3-(azetidin-3-yloxy)-2-hydroxy-3,4-dihydro-2H-benzo[e][1,2]oxaborinine-8-carboxylic acid], the pKi on NDM-1 [1] (setting [10]) is > 8.00; at NDM-1 [1] (setting [11]) it was 7.00 to 8.00; on NDM-1 [1] (setting [12]), > 8.00; on NDM-1 [6], 7.00 to 8.00; at OXA-48 (setting [13]), > 8.00; in assay [2], > 7.00. The figures for the pKi in assay [5] and in [3] were 6.00 to 7.00 and > 7.00, respectively. For the same compound, the negative-log IC50 (pIC50) at VIM-1 is ≤ 6.00.
For the compound `COc1ccc2c(c1C(=O)O)OB(O)[C@@H](Sc1nnc(NCCN)s1)C2` [Compound 97, (3R)-3-[[5-(2-aminoethylamino)-1,3,4-thiadiazol-2-yl]sulfanyl]-2-hydroxy-7-methoxy-3,4-dihydro-1,2-benzoxaborinine-8-carboxylic acid], the negative-log Ki (pKi) on NDM-1 [1] (setting [11]) was > 8.00; at NDM-1 [6] it was > 8.00; in [2] it was > 7.00; in assay [5], 6.00 to 7.00; in [3], > 7.00. The “Ki (CTX-M-14, NCF)” value in assay [7] was “X (Less than 0.1 μM)”. In addition, the “Ki (P99/AmpC of ECL, NCF)” value in assay [8] was “Y (0.1 μM to 1 μM)”. Moreover, the pIC50 at VIM-1 was > 6.00. Further, the “meropenem MIC” value in [9] was “significantly reduced”.
With `COc1ccc2c(c1C(=O)O)OB(O)[C@@H](Sc1nnc(SC3CCNCC3)s1)C2` [Compound 112, (3R)-2-hydroxy-7-methoxy-3-[[5-(4-piperidylsulfanyl)-1,3,4-thiadiazol-2-yl]sulfanyl]-3,4-dihydro-1,2-benzoxaborinine-8-carboxylic acid], the pKi was 7.00 to 8.00 at NDM-1 [1] (setting [11]); 7.00 to 8.00 on NDM-1 [6]; > 7.00 in assay [2]; > 7.00 in [5]; > 7.00 in [3]. For the same compound, the “Ki (CTX-M-14, NCF)” value in [7] is listed as “X (Less than 0.1 μM)”. The “Ki (P99/AmpC of ECL, NCF)” value in [8] is reported as “X (Less than 0.1 μM)”. For the same compound, the pIC50 on VIM-1 was > 6.00.
Turning to `COc1ccc2c(c1C(=O)O)OB(O)[C@@H](Sc1nnc(SCCCN)s1)C2` [Compound 113, (3R)-3-[[5-(3-aminopropylsulfanyl)-1,3,4-thiadiazol-2-yl]sulfanyl]-2-hydroxy-7-methoxy-3,4-dihydro-1,2-benzoxaborinine-8-carboxylic acid], the negative-log Ki (pKi) was > 8.00 on NDM-1 [1] (setting [11]); > 8.00 at NDM-1 [6]; > 7.00 in [2]; > 7.00 in assay [5]; > 7.00 in assay [3]. Also, in [7], the “Ki (CTX-M-14, NCF)” value is listed as “X (Less than 0.1 μM)”. Also, the “Ki (P99/AmpC of ECL, NCF)” value in assay [8] is on record as “X (Less than 0.1 μM)”. For the same compound, the pIC50 on VIM-1 was > 6.00.
Consider `COc1c(F)cc2c(c1C(=O)O)OB(O)[C@@H](Sc1nnc(N)s1)C2` [Compound 114, (3R)-3-[(5-amino-1,3,4-thiadiazol-2-yl)sulfanyl]-6-fluoro-2-hydroxy-7-methoxy-3,4-dihydro-1,2-benzoxaborinine-8-carboxylic acid], for which the pKi is 7.00 to 8.00 at NDM-1 [1] (setting [11]); 7.00 to 8.00 at NDM-1 [6]; > 7.00 in assay [2]; 6.00 to 7.00 in assay [5]; > 7.00 in assay [3]. Further, the “Ki (CTX-M-14, NCF)” value in assay [7] is recorded as “X (Less than 0.1 μM)”. Besides, the “Ki (P99/AmpC of ECL, NCF)” value in assay [8] was “Y (0.1 μM to 1 μM)”. Besides, the pIC50 at VIM-1 is > 6.00.
`Nc1nnc(S[C@H]2Cc3cc4nc[nH]c4c(C(=O)O)c3OB2O)s1` [Compound 115, (3R)-3-[(5-amino-1,3,4-thiadiazol-2-yl)sulfanyl]-2-hydroxy-4,8-dihydro-3H-oxaborinino[6,5-f]benzimidazole-9-carboxylic acid]: the pKi at NDM-1 [1] (setting [11]) is < 7.00; on NDM-1 [6] it was < 7.00; in assay [2] it was > 7.00; in assay [5] it was 6.00 to 7.00; in assay [3] it was > 7.00. Further, the “Ki (CTX-M-14, NCF)” value in assay [7] is “X (Less than 0.1 μM)”. For the same compound, the “Ki (P99/AmpC of ECL, NCF)” value in assay [8] is listed as “X (Less than 0.1 μM)”. In addition, on VIM-1, the pIC50 was > 6.00.
With `NCCSc1nnc(S[C@H]2Cc3cccc(C(=O)O)c3OB2O)s1` [Compound 116, (3R)-3-[[5-(2-aminoethylsulfanyl)-1,3,4-thiadiazol-2-yl]sulfanyl]-2-hydroxy-3,4-dihydro-1,2-benzoxaborinine-8-carboxylic acid], the pKi is > 8.00 on NDM-1 [1] (setting [11]); > 8.00 on NDM-1 [6]; > 7.00 in assay [2]; > 7.00 in [5]; > 7.00 in assay [3]. Besides, the “Ki (CTX-M-14, NCF)” value in assay [7] is “X (Less than 0.1 μM)”. Also, the “Ki (P99/AmpC of ECL, NCF)” value in assay [8] is recorded as “X (Less than 0.1 μM)”. The negative-log IC50 (pIC50) on VIM-1 was > 6.00.
As to `COc1ccc2c(c1C(=O)O)OB(O)[C@@H](Sc1nnc(OCCN)s1)C2` [Compound 117, (3R)-3-[[5-(2-aminoethoxy)-1,3,4-thiadiazol-2-yl]sulfanyl]-2-hydroxy-7-methoxy-3,4-dihydro-1,2-benzoxaborinine-8-carboxylic acid], the pKi is > 8.00 at NDM-1 [1] (setting [11]); > 8.00 at NDM-1 [6]; > 7.00 in assay [2]; 6.00 to 7.00 in assay [5]; > 7.00 in assay [3]. Further, the “Ki (CTX-M-14, NCF)” value in [7] is on record as “X (Less than 0.1 μM)”. Besides, the “Ki (P99/AmpC of ECL, NCF)” value in assay [8] is on record as “Y (0.1 μM to 1 μM)”. For the same compound, the negative-log IC50 (pIC50) against VIM-1 is > 6.00.
`CCOc1ccc2c(c1C(=O)O)OB(O)[C@@H](Sc1nnc(NC3CNC3)s1)C2` [Compound 118, (3R)-3-[[5-(azetidin-3-ylamino)-1,3,4-thiadiazol-2-yl]sulfanyl]-7-ethoxy-2-hydroxy-3,4-dihydro-1,2-benzoxaborinine-8-carboxylic acid]: the negative-log Ki (pKi) at NDM-1 [1] (setting [11]) is < 7.00; at NDM-1 [6] it was < 7.00; in [2], > 7.00; in assay [5], 6.00 to 7.00; in [3] it was > 7.00. In addition, the “Ki (CTX-M-14, NCF)” value in assay [7] was “X (Less than 0.1 μM)”. In addition, the “Ki (P99/AmpC of ECL, NCF)” value in assay [8] is recorded as “Y (0.1 μM to 1 μM)”. Also, the pIC50 against VIM-1 is > 6.00.
As for `Nc1nnc(S[C@H]2Cc3ccc(-n4ccnn4)c(C(=O)O)c3OB2O)s1` [Compound 119, (3R)-3-[(5-amino-1,3,4-thiadiazol-2-yl)sulfanyl]-2-hydroxy-7-(triazol-1-yl)-3,4-dihydro-1,2-benzoxaborinine-8-carboxylic acid], the pKi was > 8.00 at NDM-1 [1] (setting [11]); > 8.00 at NDM-1 [6]; > 7.00 in [2]; < 6.00 in assay [5]; 6.00 to 7.00 in assay [3]. For the same compound, the “Ki (CTX-M-14, NCF)” value in [7] was “X (Less than 0.1 μM)”. Moreover, the “Ki (P99/AmpC of ECL, NCF)” value in [8] is “Y (0.1 μM to 1 μM)”. Moreover, at VIM-1, the pIC50 was > 6.00.
